How the values were obtained:
[1] = biological target: T1, 5-hydroxytryptamine receptor 1A (Homo sapiens, UniProt P08908); experiment: Binding affinity to 5-HT1A (unknown origin) assessed as inhibition constant
T1 sequence (P08908 whole entry): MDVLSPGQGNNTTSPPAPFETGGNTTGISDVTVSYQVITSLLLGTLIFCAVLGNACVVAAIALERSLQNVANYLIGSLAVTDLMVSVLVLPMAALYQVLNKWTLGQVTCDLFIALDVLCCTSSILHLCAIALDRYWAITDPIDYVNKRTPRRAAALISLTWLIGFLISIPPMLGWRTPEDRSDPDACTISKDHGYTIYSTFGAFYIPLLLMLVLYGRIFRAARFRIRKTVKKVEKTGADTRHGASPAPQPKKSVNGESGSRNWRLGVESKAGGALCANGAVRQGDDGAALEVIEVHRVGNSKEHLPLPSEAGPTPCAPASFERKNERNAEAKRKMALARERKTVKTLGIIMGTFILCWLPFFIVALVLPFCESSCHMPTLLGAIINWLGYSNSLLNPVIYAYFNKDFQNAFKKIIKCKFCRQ

[2] = biological target: 5-hydroxytryptamine receptor 7 (Homo sapiens, UniProt P34969); experiment: Binding affinity to 5-HT7R (unknown origin) assessed as inhibition constant
[3] = biological target: T2, 5-hydroxytryptamine receptor 6 (Homo sapiens, UniProt P50406); experiment: Binding affinity to 5-HT6R (unknown origin) assessed as inhibition constant
[4] = biological target: T3, Alpha-2C adrenergic receptor (Homo sapiens, UniProt P18825); experiment: Binding affinity to alpha2C AR (unknown origin) assessed as inhibition constant
T3 sequence (P18825 whole entry): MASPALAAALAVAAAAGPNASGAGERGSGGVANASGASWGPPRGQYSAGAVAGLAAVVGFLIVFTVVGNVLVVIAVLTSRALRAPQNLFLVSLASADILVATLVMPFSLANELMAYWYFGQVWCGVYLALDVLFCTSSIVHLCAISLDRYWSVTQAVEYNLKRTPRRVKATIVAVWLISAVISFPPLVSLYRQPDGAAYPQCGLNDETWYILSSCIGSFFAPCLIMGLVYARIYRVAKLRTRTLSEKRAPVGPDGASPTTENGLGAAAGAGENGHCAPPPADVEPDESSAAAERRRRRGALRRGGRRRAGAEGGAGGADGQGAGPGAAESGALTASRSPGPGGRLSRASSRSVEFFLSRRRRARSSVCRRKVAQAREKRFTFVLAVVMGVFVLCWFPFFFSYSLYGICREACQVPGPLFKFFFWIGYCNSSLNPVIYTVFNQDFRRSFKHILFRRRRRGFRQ

[5] = biological target: T2, 5-hydroxytryptamine receptor 6; experiment: Displacement of [125I]cAMP-tracer from 5-HT6R in human HeLa cells assessed as measuring cAMP level incubated for 15 mins by radioimmunoassay; assay type: cell-based

T2 sequence (P50406 whole entry): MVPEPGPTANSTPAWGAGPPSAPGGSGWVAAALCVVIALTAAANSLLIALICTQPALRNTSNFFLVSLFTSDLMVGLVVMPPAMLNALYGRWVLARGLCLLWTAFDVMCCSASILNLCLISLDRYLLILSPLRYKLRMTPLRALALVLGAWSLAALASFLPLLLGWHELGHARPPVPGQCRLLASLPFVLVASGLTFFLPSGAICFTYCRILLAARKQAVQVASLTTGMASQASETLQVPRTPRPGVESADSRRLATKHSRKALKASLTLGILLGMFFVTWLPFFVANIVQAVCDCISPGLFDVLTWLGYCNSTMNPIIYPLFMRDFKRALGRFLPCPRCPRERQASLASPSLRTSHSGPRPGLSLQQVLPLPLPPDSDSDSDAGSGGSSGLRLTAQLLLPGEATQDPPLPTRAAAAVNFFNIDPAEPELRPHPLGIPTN
Sequence of 5-hydroxytryptamine receptor 7 (P34969 whole entry): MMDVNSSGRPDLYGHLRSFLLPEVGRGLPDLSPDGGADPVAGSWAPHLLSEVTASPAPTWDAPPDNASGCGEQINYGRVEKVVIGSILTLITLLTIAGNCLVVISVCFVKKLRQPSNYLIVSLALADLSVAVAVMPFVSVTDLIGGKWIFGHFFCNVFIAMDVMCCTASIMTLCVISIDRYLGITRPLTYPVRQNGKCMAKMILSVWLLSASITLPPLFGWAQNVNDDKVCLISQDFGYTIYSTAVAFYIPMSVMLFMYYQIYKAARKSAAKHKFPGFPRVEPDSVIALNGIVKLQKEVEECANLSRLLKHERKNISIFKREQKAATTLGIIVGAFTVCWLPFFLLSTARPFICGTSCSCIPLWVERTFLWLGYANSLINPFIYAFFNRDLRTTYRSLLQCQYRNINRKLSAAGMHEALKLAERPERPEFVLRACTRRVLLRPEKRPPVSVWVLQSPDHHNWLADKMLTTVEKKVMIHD

| SMILES | Ki [1] | Ki [2] | Ki [3] | other results |
| --- | --- | --- | --- | --- |
| CCOCC(Oc1c(C)cccc1Cl)N1CCN(c2ccccc2OC)CC1 (stereo not given) | < 1 nM | 34 nM | 9620 nM | – |
| O=C1C2C3CCC(C3)C2C(=O)N1CC1CCCCC1CN1CCN(c2nsc3ccccc23)CC1 (stereo not given) | – | – | – | Ki [4]: 11 nM |
| CCOCC(Oc1c(C)cccc1C)N1CCN(c2ccccc2OC)CC1 (stereo not given) | 41 nM | 156 nM | 9970 nM | – |
| COc1cc(NS(=O)(=O)c2ccc(OC)c(N3CCNCC3)c2)c(Cl)cc1Cl | – | – | – | Ki [5]: 0.98 nM |
| Clc1ccc(-c2nn(Cc3ccccc3)c3c2CCNCC3)cc1 [JNJ-18038683 FREE BASE] | – | 3 nM | – | – |
| CCN1CCCC1CNC(=O)c1cc(S(N)(=O)=O)ccc1OC (stereo not given) [SULPIRIDE] | – | > 3000 nM | – | – |

From ChEMBL document CHEMBL5214911, “Chemical update on the potential for serotonin 5-HT6 and 5-HT7 receptor agents in the treatment of Alzheimer's disease” (Bioorg Med Chem Lett, 2021)
